Source: patent publication US6709864B1, “Adipogenic differentiation of human mesenchymal stem cells” (Osiris Therapeutics, Inc., priority 1996, dated 2004)

What was measured:
[1] = tested on: human mesenchymal stem cells; assay: Nile Red / DAPI fluorescence plate reader assay of adipogenic differentiation of hMSCs; type: cell-based
Description: These experiments were performed to determine the effect of adding varying concentrations of indomethacin to mesenchymal stem cells in culture to induce adipogenic differentiation. […] We also tested indomethacin under the same conditions however in the absence of methyl isobutylxanthine. The results were compared visually by observing the accumulation of lipid within the cells and by staining the lipid with the fluorescent lipid-soluble dye Nile Red and reading on a fluorescence plate reader as described in Example 6. These experiments were performed to determine the effect of adding varying concentrations of 15-deoxy Δ^12,14 -prostaglandin J2 (15d-PGJ2) to […] in culture to induce adipogenic differentiation. […] We also tested 15d-PGJ2 under the same conditions without methyl isobutylxanthine present. hMSCs were grown in 12 or 24 well tissue culture plates and were treated with adipogenic inducing agents as described above when the cells were post-confluent. After three treatments, the cells were allowed to accumulate lipid for an additional week prior to analysis. The cell layers were rinsed with Dulbecco's modified PBS (D.PBS) and fixed for 30 minutes in 10% Neutral Buffered Formalin. The plates were then rinsed with D. PBS and incubated for 30 minutes with 0.02% Saponin, 0.8 μg/ml DAPI (from an aqueous 2 mg/ml stock) and 1 μg/ml Nile Red (from a 1 mg/ml stock in acetone) in D. PBS. Plates were then rinsed three times with D.PBS.

[2] = tested on: human mesenchymal stem cells; assay: Adipogenesis assay of hMSCs, lipid vacuoles observed by microscopy / Oil Red O; type: cell-based; conditions: methyl isobutylxanthine alone in normal hMSC media during induction, then 14 days Adipogenic Maintenance Media
Description: Human MSCs are isolated from the red bone marrow of volunteer donors as described in U.S. Pat. No.5,486,359. The cells are grown until colonies are well established and at this point the cells are subcultured (1 to 3) or they can be taken to assay for in vitro adipogenesis. For the adipogenesis assay, hMSCs are subcultured into 35 mm tissue culture dishes at 100,000 cells per dish and fed with 2 milliliters normal hMSC Media (Dulbecco's Modified Eagle's Media (DMEM), 10% selected Fetal Bovine Serum (FBS) and antibiotic/antimycotic mixture (IX) (Life Technologies, Inc.)) and cells are maintained at 37° C., 5% CO2 and 90% humidity. The cells are refed with the fresh media every third day and are allowed to multiply and become confluent. The cells are maintained after reaching confluence by refeeding every third day and this time period of post confluence culturing enhances the adipogenic response in the next step (at least out to 14 days). The differentiation into adipocytes is initiated by changing the media to 2 ml of Adipogenic Induction Media (DMEM with 10% fetal bovine serum containing 10 μg/ml insulin (human recombinant, Boehringer Mannheim Corp.), 0.5 mM methyl isobutylxanthine (MIX)(Sigma Chemical Co.), 1 μM dexamethasone (Dex)(Sigma Chemical Co.)). […]

[3] = 1 μM 15d-PGJ2 with insulin only (I)
[4] = 10 μM 15d-PGJ2 with insulin only (I)
[5] = 50 μM indomethacin in DI (no MIX)
[6] = 50 μM indomethacin with insulin only (I)
[7] = 100 μM indomethacin in DI (no MIX)
[8] = 100 μM indomethacin with insulin only (I)
[9] = 200 μM indomethacin in DI (no MIX)
[10] = 200 μM indomethacin with insulin only (I)

CCCCC/C=C/C=C1/C(=O)C=C[C@@H]1C/C=C\CCCC(=O)O [15d-PGJ2, 15-deoxy Δ^12,14-prostaglandin J2]
DAPI (cor) ([1]; 1 μM 15d-PGJ2 in DI (no MIX)): 5.99 relative fluorescence intensity
Nile red (cor) ([1]; 1 μM 15d-PGJ2 in DI (no MIX)): 1.19 relative fluorescence intensity
Nile red/DAPI ([1]; 1 μM 15d-PGJ2 in DI (no MIX)): 0.20
DAPI (cor) ([1]; 1 μM 15d-PGJ2 in MDI): 6.53 relative fluorescence intensity
Nile red (cor) ([1]; 1 μM 15d-PGJ2 in MDI): 13.16 relative fluorescence intensity
Nile red/DAPI ([1]; 1 μM 15d-PGJ2 in MDI): 2.02
DAPI (cor) [1, 3]: 4.98 relative fluorescence intensity
Nile red (cor) [1, 3]: 0.83 relative fluorescence intensity
Nile red/DAPI [1, 3]: 0.17
DAPI (cor) ([1]; 10 μM 15d-PGJ2 in MDI): 7.22 relative fluorescence intensity
Nile red (cor) ([1]; 10 μM 15d-PGJ2 in MDI): 17.56 relative fluorescence intensity
Nile red/DAPI ([1]; 10 μM 15d-PGJ2 in MDI): 2.43
DAPI (cor) [1, 4]: 5.75 relative fluorescence intensity
Nile red (cor) [1, 4]: 0.85 relative fluorescence intensity
Nile red/DAPI [1, 4]: 0.15
adipogenic response ([1]; 15d-PGJ2 1 or 10 μM in MDI induction medium): dose dependent increase
adipogenic effectiveness compared with indomethacin ([1]; 15d-PGJ2 at 10 μM added to MDI medium): nearly as effective as indomethacin
effect on adipogenesis ([1]; 15d-PGJ2 with insulin alone): no significant effect
DAPI (cor) ([1]; DI + 10 15d-PGJ2 (no MIX)): 5.36 relative fluorescence intensity
Nile red (cor) ([1]; DI + 10 15d-PGJ2 (no MIX)): 2.57 relative fluorescence intensity
Nile red/DAPI ([1]; DI + 10 15d-PGJ2 (no MIX)): 0.48
adipogenic response ([1]; DI + 15d-PGJ2): weak adipogenic response

COc1ccc2c(c1)c(CC(=O)O)c(C)n2C(=O)c1ccc(Cl)cc1 [indomethacin]
DAPI (cor) [1, 5]: 6.66 relative fluorescence intensity
Nile red (cor) [1, 5]: 3.11 relative fluorescence intensity
Nile red/DAPI [1, 5]: 0.47
DAPI (cor) ([1]; 50 μM indomethacin in MDI): 7.8 relative fluorescence intensity
Nile red (cor) ([1]; 50 μM indomethacin in MDI): 11.72 relative fluorescence intensity
Nile red/DAPI ([1]; 50 μM indomethacin in MDI): 1.50
DAPI (cor) [1, 6]: 5.12 relative fluorescence intensity
Nile red (cor) [1, 6]: 0.64 relative fluorescence intensity
Nile red/DAPI [1, 6]: 0.13
DAPI (cor) [1, 7]: 6.77 relative fluorescence intensity
Nile red (cor) [1, 7]: 5.35 relative fluorescence intensity
Nile red/DAPI [1, 7]: 0.79
DAPI (cor) ([1]; 100 μM indomethacin in MDI): 7.11 relative fluorescence intensity
Nile red (cor) ([1]; 100 μM indomethacin in MDI): 16.39 relative fluorescence intensity
Nile red/DAPI ([1]; 100 μM indomethacin in MDI): 2.31
DAPI (cor) [1, 8]: 5.81 relative fluorescence intensity
Nile red (cor) [1, 8]: 0.74 relative fluorescence intensity
Nile red/DAPI [1, 8]: 0.13
DAPI (cor) [1, 9]: 6.03 relative fluorescence intensity
Nile red (cor) [1, 9]: 10.08 relative fluorescence intensity
Nile red/DAPI [1, 9]: 1.67
DAPI (cor) ([1]; 200 μM indomethacin in MDI): 8.72 relative fluorescence intensity
Nile red (cor) ([1]; 200 μM indomethacin in MDI): 20.27 relative fluorescence intensity
Nile red/DAPI ([1]; 200 μM indomethacin in MDI): 2.32
DAPI (cor) [1, 10]: 5.28 relative fluorescence intensity
Nile red (cor) [1, 10]: 0.74 relative fluorescence intensity
Nile red/DAPI [1, 10]: 0.14
commitment of hMSCs to adipocyte lineage and intracellular lipid accumulation ([1]; indomethacin 50-200 μM in MDI induction medium): dose dependent increase
hMSCs becoming adipocytes ([1]; indomethacin at 200 μM in MDI): ~100%
Nile Red staining relative to MDI sample alone ([1]; indomethacin at 200 μM in MDI, fluorescent plate reader): nearly three times that of the MDI sample alone
adipogenic differentiation level relative to MDI+indomethacin ([1]; indomethacin in DMEM with dexamethasone and insulin only (DI)): approximately half that of the MDI+indomethacin sample
effect on hMSC adipogenesis ([1]; indomethacin with insulin): no significant effect

CC(C)Cn1c(=O)n(C)c(=O)c2[nH]cnc21 [methyl isobutylxanthine, 1-methyl-3-isobutylxanthine]
cell phenotype (morphology) [2]: retain a flat fibroblastic phenotype
